“Also recorded” adds a separate entry of the source. Positions of bridges follow the written chain, without caps; N, C: chain ends. No end group written: not given here.
Assays:
RG RSV [1] = assay: Prophylactic model of RSV infection in HEp2 cells, flow cytometry of GFP, RG RSV; assay type: cell-based, respiratory syncytial virus; settings: two doses 5 μM peptide, 0.2 MOI, vs untreated positive control
Description: (§1) The effect of inhibitory peptides (HR2-A, HR2-B, HR2-C, HR2-D, HR2-E, HR2-S, HR2-D0, HR2-D1, HR2-D2, HR2-D3, HR2-D4) on RG RSV infection given by prophylactic method was visualized by inverted fluorescence microscopy (Olympus IX371) and quantitated by flow cytometry. For plaque assays, 50K HEp2 cells/well were seeded in 24-well plates and infected with RG RSV (0.1-1 MOI) in the presence of peptides for 1 h. The viral supernatant was removed and a second dose of peptides in methylcellulose/5% FBS was overlaid onto the cells. Plaques were visualized and quantified (3-5 days pi). Cellular uptake was characterized using confocal microscopy and flow cytometry. For confocal imaging, 50K cells (Vero, A549) were placed on a […] and grown overnight before treatment with MPs (5 μM peptide conc./dish) and incubated for 1 h at 37° C. […] Uptake was quantified by flow cytometry (BD FacsAria analyzer/sorter). […] Final cell pellet was suspended in 400 μl of 1×PBS and analyzed for green and/or red content.
(§2) The anti-RSV activity of peptides HR2-S, HR2-E, HR2-A, HR2-B, HR2-C, and HR2-D was tested in vitro following a prophylactic model of RSV infection in HEp2 cells described in the experimental section above. RG and RA2 RSV strains were used to quantify infection by flow and RA2 and A2 strains were used to quantitate the viral titers by immunochemistry. […]

A2 RSV = assay: RSV titers by plaque assay in HEp-2 cells in presence of peptide, A2 strain; assay type: cell-based, respiratory syncytial virus; settings: for inhibition of A2 infection by viral titers: 24-96 h after infection
Description: (§3) Growth and titration of the respiratory syncytial virus (RSV) strains A2, RG RSV (green-fluorescent tag), and rA2 were performed as previously described in the literature.^17,18 RSV was propagated in HEp-2 cells containing 0.1 PFU/cell in T-175 flasks supplied with 7 ml of 2% FBS, OptiMEM (virus yield 10^6-10^7 pfu/ml). Infection was allowed for 2 h. (at 37° C., 5% CO2) and then replaced with fresh media. The infection was allowed to progress until CPE (80-90%), typically happening after 3 days of incubation. Viral suspension was collected and combined with scrapped cells in to a vial and centrifuged at 3200 rpm for 10 min at 4° C. The culture supernatant was collected and mixed with 0.1 volumes of sterile magnesium sulfate (1M). Last, viral supernatant was stored in cryovials and stored in liquid nitrogen tank.^18,19 Viral titers were measured using carboxymethylcellulose plaque assay on HEp-2 cells grown to 80-90% confluency at 5% FBS/DMEM in a 24-well plate (70K cells per well).^17,18,19 Virus particles were visible and quantitated after immunochemistry treatment of the cells with primary anti-RSV F mouse monoclonal [RSV3216 (B016)] (1:1000 dilution) and secondary antibody against primary with HRP conjugate.
The effect of inhibitory peptides (HR2-A, HR2-B, HR2-C, HR2-D, HR2-E, HR2-S, HR2-D0, HR2-D1, HR2-D2, HR2-D3, HR2-D4) on RG RSV infection given by prophylactic method was visualized by inverted fluorescence microscopy (Olympus IX371) and quantitated by flow cytometry. For plaque assays, 50K HEp2 cells/well were seeded in 24-well plates and infected with RG RSV (0.1-1 MOI) in the presence of peptides for 1 h. The viral supernatant was removed and a second dose of peptides in methylcellulose/5% FBS was overlaid onto the cells. Plaques were visualized and quantified (3-5 days pi). Cellular uptake was characterized using confocal microscopy and flow cytometry. For confocal imaging, 50K cells (Vero, A549) were placed on a […] and grown overnight before treatment with MPs (5 μM peptide conc./dish) and incubated for 1 h at 37° C. Cells were placed in a live-cell environmental chamber at 37° C. with 5% CO2 and imaged using spinning-disk confocal microscopy (Olympus IX81 confocal microscope). Uptake was quantified by flow cytometry (BD FacsAria analyzer/sorter). Samples for flow cytometry were prepared using 50K cells/well seeded in 24-well plates and grown in DMEM plus 10% FBS and incubated with peptides at a concentration of 5 μM peptide/well for 30 min at 37° C. […] Final cell pellet was suspended in 400 μl of 1×PBS and analyzed for green and/or red content.
Following the same methodology as for flow, two doses of peptides were used, and virus inoculation was 0.2 MOI. Titers were quantified 24 to 96 h after infection (pi).

RG RSV [2] = assay: HR2-D peptide series, prophylactic model of infection in Vero cells, GFP by flow cytometry; assay type: cell-based, respiratory syncytial virus; settings: for GFP from positive control: prophylactic
Description: (§4) 25K Vero or A549 cells grown in 48-well plates and supplied with DMEM (no serum) were treated with a dose of peptides or micelle-peptides (5 μM peptide/well) for 30 min. previous to infection with RSV. Infection was carried out at a 0.1 MOI and allowed in the cell culture for 1 h. After removal of viral supernatant, the cells were treated with a second dose of peptides or peptide-loaded micelles containing 5 μM peptide/well in DMEM (5% FBS, 1% P/S). Infection was followed for a period of 48 h through microscopy and quantified through flow cytometry.
Infection experiments with the HR2-D series were carried out in Vero cells following a prophylactic model of infection using RG RSV (MOI=0.1) strain. At 48 h after infection, the cells were analyzed for GFP (positive RSV infection) by flow cytometry. […] Compared to HR2-D0, HR2-D1 is about 30% lower. For the activity of the inhibitor peptide HR2-D (˜20% GFP from positive control), as shown by the loss of activity by 1.5 fold for HR2-D2 vs. 2.5 fold for peptide HR2-D1. Moreover, the presence of the one free cysteine which is not forming a disulfide bond might result in destabilizing the whole structure. HR2-D1 and HR2-D2 have a free cysteine residue at position 9 and 32, respectively while HR2-S, HR2-D3 and HR2-D4 contain only one pair of cysteines.

RG RSV [3] = assay: Free peptide and Cy5-labeled MPs, prophylactic model in Vero cells at low and high MOI, flow cytometry; assay type: cell-based, respiratory syncytial virus
Description: as §4
The effect of inhibitory peptides (HR2-A, HR2-B, HR2-C, HR2-D, HR2-E, HR2-S, HR2-D0, HR2-D1, HR2-D2, HR2-D3, HR2-D4) on RG RSV infection given by prophylactic method was visualized by inverted fluorescence microscopy (Olympus IX371) and quantitated by flow cytometry. […] Plaques were visualized and quantified (3-5 days pi). […] Uptake was quantified by flow cytometry (BD FacsAria analyzer/sorter). […] Final cell pellet was suspended in 400 μl of 1×PBS and analyzed for green and/or red content.
The hydrodynamic diameter of micelles with surface-conjugated peptides (MPs) was measured and compared to MPs with peptides also in the core (FMPs) (FIG. 6A). […] Subsequently experiments involved using Cy5 labeled peptides conjugated to the micelles and quantifying its activity against RG RSV infection by flow cytometry. […]

RG RSV [4] = assay: Therapeutic antiviral activity of FMDs in A549 cells infected with RG RSV; assay type: cell-based, respiratory syncytial virus; settings: administered 24 h pi, RG RSV low MOI
Description: 25K A549 cells grown in 48-well plates and supplied with DMEM (no serum) were infected with RSV at a 0.1 MOI for 1 h. After washing the viral supernatant, cells were incubated in DMEM (5% FBS, 1% P/S) allowing progression of infection for different time periods (4 and 24 h), however, only 24 h is shown here. At these two time points, cells were treated with a dose of peptides or micelle-peptides containing 5 μM peptide/well. Infection was followed for a period of 48 h through microscopy and quantified through Image J statistical analysis software.
For testing the efficiency of FMDs, cytotoxicity was measured in A549 cells at different HR2-D peptide concentrations using FM2D and FM3D, respectively (FIG. 10A). EM2 and EM3 represent empty micelle control. A549 cells were infected according to therapeutic conditions, and FMD (6 μM FM2D, 5 μM FM3D) were administered 24 h pi. The images were visualized 48 h pi (FIG. 10B) and the inhibitory efficiency quantified using flow cytometry (FIGS. 10C and 10D). […] FM3D had good inhibitory activity by suppressing the expression of GFP by 65% as compared to the control.

[5] = Hydrodynamic diameter by dynamic light scattering; assay type: physicochemical; settings: DLS, in water
Description: The hydrodynamic radius of functionalized micelles (FMDs), micelle-peptide complexes (MPs), FMP, Cy5-amine-coated micelles and Cy5-HR2-D in water was measured using dynamic light scattering and zeta potential (DLS, Microtrac). Aliquots for DLS were prepared by diluting the stock samples 1:5, passing them through a 0.2 μm syringe-filter and sonicating for 10 min to disrupt aggregation.

rgRSV = assay: In vivo model of rgRSV infection and intranasal prophylactic treatment; design: species or system BALB/c mice; settings: intranasal 50 μL of 125 μM 1 h before rgRSV 1×10^6 pfu, 24 h post infection, vs empty micelle control
Description: Ten week old BALB/c mice (n=4 per group) were anesthetized and treated intranasally with the indicated HR2D peptide (125 μM in 1.2% DMSO) or packaged in filled micelles or with chitosan nanoparticles and empty micelles control. One hour post reatment, three groups of mice were inoculated with a single dose of rgRSV at 1×10^6 pfu/mouse. Mice were sacrificed at 24 hours post infection and the noses harvested, sectioned, stained with DAPI and imaged for GFP using an Olympus fluorescent microscope.
To determine if the in vitro anti-RSV activity of HR2D translated to an in vivo context, in vivo testing was performed on mice. HR2D peptide itself, HR2 peptide with filled micelles, empty micelles as control, and HR2D peptide chitosan nanocomplexes were each administered by nasal drop (50 μL of 125 μM solution in 1.2% DMSO) to ten week old BALB/c mice followed by intranasal inoculation with a single dose of rgRSV (1×10^6 pfu) one hour later. Mice were sacrificed 24 hours after infection, and the noses harvested, sectioned, stained with DAPI, and subjected to fluorescence imaging. […] Thus, we find that pretreatment of rgRSV-infected mice with intranasal HR2D peptide markedly decreases nasal infection.

RSV RA2 = assay: Prophylactic model of RSV infection in HEp2 cells, flow cytometry with FITC-labeled anti-RSV staining, RA2 RSV; assay type: cell-based, respiratory syncytial virus; settings: two doses 5 μM peptide, 0.2 MOI
Description: as §1, §2

RA2 RSV = assay: RSV titers by plaque assay in HEp-2 cells in presence of peptide, RA2 strain; assay type: cell-based, respiratory syncytial virus; settings: 24-96 h after infection
Description: as §3, with “The culture supernatant was collected and mixed with 0.1 volumes of sterile magnesium sulfate (1M).” left out, “(1:1000 dilution) and secondary antibody against primary with HRP conjugate.” left out
The effect of inhibitory peptides (HR2-A, HR2-B, HR2-C, HR2-D, HR2-E, HR2-S, HR2-D0, HR2-D1, HR2-D2, HR2-D3, HR2-D4) on RG RSV infection given by prophylactic method was visualized by inverted fluorescence microscopy (Olympus IX371) and quantitated by flow cytometry. […] Plaques were visualized and quantified (3-5 days pi). […]

[6] = RG RSV MOI=0.1, 48 h after infection

## DACISQVNECINQSLAFICKSDELLCNT (disulfide (positions not given here)) [HR2-D, ID NO.: 7, two disulfides]
RG RSV [1]
  inhibition of RG RSV infection (GFP expression): greatest inhibition of RG RSV infection
A2 RSV
  inhibition of A2 infection by viral titers: greater inhibitory activity
A2 RSV; 96 h pi, 0.2 MOI
  decrease in A2 titers: 50,000 fold
RG RSV [2]; [6]
  GFP from positive control: ~20%
RG RSV [3]; low MOI (0.1), prophylactic, 24 h pi
  infection blocked compared to positive control: 85%
RG RSV [3]; virus concentration not stated at this place
  neutralization (peptide release comparison with controls): 70%
RG RSV [4]
  control of infection under therapeutic conditions: did not control the infection significantly
[5]
  hydrodynamic diameter: 2 nm
rgRSV
  RSV infection (GFP-positive cells) in nose sections: significantly decreased virus infected cells in the nose
rgRSV; listed as HR2D peptide
  RSV infection (GFP-positive cells) in nose sections: marked reduction in GFP-positive nasal tissue

## DACISQVNECINQSLAFIRKSDELLCNT (not fully specified (bridges); cysteine pairing not given here) [HR2-D2, ID NO.: 10]
RG RSV [2]; RG RSV MOI=0.1, 48 h
  loss of activity relative to HR2-D: 1.5 fold

## DACISQVNEKINQSLAFICKSDELLCNT (not fully specified (bridges); cysteine pairing not given here) [HR2-D1, ID NO.: 9]
RG RSV [2]; RG RSV MOI=0.1, 48 h
  GFP lower compared to HR2-D0: about 30%
  loss of activity relative to HR2-D: 2.5 fold

## DACISQVNEKINQSLAFIRKSDELLCNT (disulfide 3-26 (inferred)) [HR2-D3, ID NO.: 11]
RG RSV [2]; RG RSV MOI=0.1, 48 h
  activity less compared to HR2-S: 3 fold

## DASISQVNECINQSLAFICKSDELLHNT (disulfide 10-19 (inferred)) [HR2-D4, ID NO.: 12]
RG RSV [2]; RG RSV MOI=0.1, 48 h
  activity less compared to HR2-S: 2 fold

## DASISQVNEKINQSLAFIRKSDELLHNT (Chemically synthesized anti-RSV peptide) [HR2-D0, ID NO.: 8, control peptide with no cysteine]
RG RSV [2]; [6]
  inhibitory activity against RSV infection: did not show any inhibitory activity; also recorded: lack of activity

## FDACISQVNECINQSLAFIRKSDELLHNVNAGKST (disulfide 4-11 (inferred)) [HR2-S, ID NO.: 2, one disulfide]
RG RSV [1]
  inhibition of RG RSV infection (GFP expression): less GFP expression
RSV RA2
  inhibition of RA2 RSV infection: most effective inhibitor
RA2 RSV
  inhibition of RA2 infection by viral titers: did inhibit RA2 infection
A2 RSV
  inhibition of A2 infection by viral titers: did not block A2 infection effectively
A2 RSV; 24 h to 96 h pi, 0.2 MOI, 5 μM peptide
  reduction in A2 viral titers: about 0.2 fold
RG RSV [2]; [6]
  GFP from positive control: ~38%

Reference: patent US9556236B1, “Compositions and methods for treating respiratory syncytial virus infection” (priority 2012, dated 2017)
